Assay results taken from US4684664A, “Derivatives of β-(4-isocyano-1,2,3,4-diepoxycyclopentyl) acrylic acid” (Kureha Kagaku Kogyo Kabushiki Kaisha, priority 1984, dated 1987).
≈ marks a conversion by molar mass, not a printed value.

Tests used:
Type in all cases: cell-based
[1] = system: Staphylococcus aureus Terajima; test: Antibacterial activity, agar-dilution MIC, organism No. 2; conditions: Staphylococcus aureus; Organism No. 2, bouillon-agar; read-out: Minimum Inhibitory Concentration
Description: (§1) Agar-dilution method was used for determination of the antibacterial activity and antifungal activity while using bouillon-agar culture medium, and the minimum inhibitory concentration of the specimen was expressed by μg/ml of the culture medium.

[2] = system: Staphylococcus aureus FDA 209PJc-1; test: Antibacterial activity, agar-dilution MIC, organism No. 1; conditions: Staphylococcus aureus, FDA209PJC1; Organism No. 1, bouillon-agar; read-out: Minimum Inhibitory Concentration
Description: as §1

[3] = system: Pseudomonas aeruginosa IFO 3445; test: Antibacterial activity, agar-dilution MIC, organism No. 15; conditions: Pseudomonas aeruginosa, IFO3445; Organism No. 15, bouillon-agar; read-out: Minimum Inhibitory Concentration
Description: as §1

[4] = system: Klebsiella pneumoniae PCI-602; test: Antibacterial activity, agar-dilution MIC, organism No. 7; conditions: Klebsiella pneumoniae, PCI602; Organism No. 7, bouillon-agar; read-out: Minimum Inhibitory Concentration
Description: as §1

[5] = system: Proteus morganii IFO 3848; test: Antibacterial activity, agar-dilution MIC, organism No. 18; conditions: Morganella morganii, IFO3848; Organism No. 18, bouillon-agar; read-out: Minimum Inhibitory Concentration
Description: as §1

[6] = system: Staphylococcus aureus MS 353; test: Antibacterial activity, agar-dilution MIC, organism No. 3; conditions: Staphylococcus aureus, MS353; Organism No. 3, bouillon-agar; read-out: Minimum Inhibitory Concentration
Description: as §1

[7] = system: Enterobacter aerogenes ATCC 13048; test: Antibacterial activity, agar-dilution MIC, organism No. 23; conditions: Klebsiella aerogenes, ATCC13048; Organism No. 23, bouillon-agar; read-out: Minimum Inhibitory Concentration
Description: as §1

[8] = system: Salmonella paratyphi-A 1015; test: Antibacterial activity, agar-dilution MIC, organism No. 10; conditions: Salmonella enterica, PARATYPHI, read-out: Minimum Inhibitory Concentration
Description: as §1

[9] = system: Micrococcus luteus ATCC 9341; test: Antibacterial activity, agar-dilution MIC, organism No. 25; conditions: Micrococcus luteus, ATCC9341; Organism No. 25, bouillon-agar; read-out: Minimum Inhibitory Concentration
Description: as §1

Enterobacter cloacae 963 = test: Antibacterial activity, agar-dilution MIC, organism No. 24; conditions: Enterobacter cloacae, 963; Organism No. 24, bouillon-agar; read-out: Minimum Inhibitory Concentration
Description: as §1

Proteus vulgaris OX-19 = test: Antibacterial activity, agar-dilution MIC, organism No. 20; conditions: Proteus vulgaris, OX19; Organism No. 20, bouillon-agar; read-out: Minimum Inhibitory Concentration
Description: as §1

[10] = system: Proteus mirabilis IFO 3849; test: Antibacterial activity, agar-dilution MIC, organism No. 19; conditions: Proteus mirabilis, IFO3849; Organism No. 19, bouillon-agar; read-out: Minimum Inhibitory Concentration
Description: as §1

Salmonella typhi 901 = test: Antibacterial activity, agar-dilution MIC, organism No. 9; conditions: Salmonella enterica, TYPHI, read-out: Minimum Inhibitory Concentration
Description: as §1

[11] = system: Bacillus subtilis ATCC 6633; test: Antibacterial activity, agar-dilution MIC, organism No. 14; conditions: Bacillus subtilis, ATCC6633; Organism No. 14, bouillon-agar; read-out: Minimum Inhibitory Concentration
Description: as §1

[12] = system: Salmonella enteritidis G 14; test: Antibacterial activity, agar-dilution MIC, organism No. 12; conditions: Salmonella enterica, ENTERITIDIS; Organism No. 12, bouillon-agar; read-out: Minimum Inhibitory Concentration
Description: as §1

[13] = system: Streptococcus pyogenes Cook; test: Antibacterial activity, agar-dilution MIC, organism No. 4; conditions: Streptococcus pyogenes; Organism No. 4, bouillon-agar; read-out: Minimum Inhibitory Concentration
Description: as §1

[14] = system: Streptococcus faecium IFO 3826; test: Antibacterial activity, agar-dilution MIC, organism No. 27; conditions: Enterococcus faecium, IFO3826; Organism No. 27, bouillon-agar; read-out: Minimum Inhibitory Concentration
Description: as §1

[15] = system: Aspergillus niger IFO 6342; test: Antifungal activity, agar-dilution MIC, organism No. 30; conditions: Aspergillus niger, IFO6342; Organism No. 30, bouillon-agar; read-out: Minimum Inhibitory Concentration
Description: as §1

[16] = system: Escherichia coli K12 C600 IAM 1264; test: Antibacterial activity, agar-dilution MIC, organism No. 6; conditions: Escherichia coli, IAM1264; Organism No. 6, bouillon-agar; read-out: Minimum Inhibitory Concentration
Description: as §1

[17] = system: Proteus rettgeri IFO 3850; test: Antibacterial activity, agar-dilution MIC, organism No. 22; conditions: Providencia rettgeri, IFO3850; Organism No. 22, bouillon-agar; read-out: Minimum Inhibitory Concentration
Description: as §1

[18] = system: Salmonella shottmuelleri 8006; test: Antibacterial activity, agar-dilution MIC, organism No. 11; conditions: Salmonella, 8006; Organism No. 11, bouillon-agar; read-out: Minimum Inhibitory Concentration
Description: as §1

[19] = system: Escherichia coli NIHJ-JC-2; test: Antibacterial activity, agar-dilution MIC, organism No. 5; conditions: Escherichia coli, NIHJJC2; Organism No. 5, bouillon-agar; read-out: Minimum Inhibitory Concentration
Description: as §1

[20] = system: Streptococcus pyogenes IFO 3340; test: Antibacterial activity, agar-dilution MIC, organism No. 26; conditions: Streptococcus pyogenes, IFO3340; Organism No. 26, bouillon-agar; read-out: Minimum Inhibitory Concentration
Description: as §1

[21] = system: Mycoplasma pneumoniae IID817; test: Antimycoplasmal activity, MIC by phenol red colour change, organism No. 28; conditions: Mycoplasma, IID817; Organism No. 28, PPLO broth + 1% glucose, 37° C.; read-out: Minimum Inhibitory Concentration (MIC)
Description: Mycoplasma pneumoniae IID817 was used as the test microorganism in a culture medium prepared by adding 1% of glucose to "PPLO broth (manufactured by Difco Co.) liquid culture medium" at 37° C. with phenol red as an indicator, thereby culturing the test microorganism.

Proteus vulgaris HX-19 = test: Antibacterial activity, agar-dilution MIC, organism No. 21; conditions: Proteus vulgaris, HX19; Organism No. 21, bouillon-agar; read-out: Minimum Inhibitory Concentration
Description: as §1

[22] = system: Pseudomonas aeruginosa PAO 1; test: Antibacterial activity, agar-dilution MIC, organism No. 17; conditions: Pseudomonas aeruginosa, PAO1; Organism No. 17, bouillon-agar; read-out: Minimum Inhibitory Concentration
Description: as §1

[23] = system: Candida albicans IAM 4905; test: Antifungal activity, agar-dilution MIC, organism No. 29; conditions: Candida albicans, IAM4905; Organism No. 29, bouillon-agar; read-out: Minimum Inhibitory Concentration
Description: as §1

[24] = system: Salmonella typhimurium IID 971; test: Antibacterial activity, agar-dilution MIC, organism No. 8; conditions: Salmonella enterica; Organism No. 8, bouillon-agar; read-out: Minimum Inhibitory Concentration
Description: as §1

[25] = system: Pseudomonas aeruginosa NCTC 10490; test: Antibacterial activity, agar-dilution MIC, organism No. 16; conditions: Pseudomonas aeruginosa, NCTC10490; Organism No. 16, bouillon-agar; read-out: Minimum Inhibitory Concentration
Description: as §1

Structure (SMILES) | MIC [1] [µg/mL] | MIC [2] [µg/mL] | MIC [3] [µg/mL] | MIC [4] [µg/mL] | MIC [5] [µg/mL] | MIC [6] [µg/mL] | MIC [7] [µg/mL] | MIC [8] [µg/mL] | MIC [9] [µg/mL] | MIC (Enterobacter cloacae 963) [µg/mL] | MIC (Proteus vulgaris OX-19) [µg/mL] | MIC [10] [µg/mL] | MIC (Salmonella typhi 901) [µg/mL] | MIC [11] [µg/mL] | MIC [12] [µg/mL] | MIC [13] [µg/mL] | MIC [14] [µg/mL] | MIC [15] [µg/mL] | MIC [16] [µg/mL] | MIC [17] [µg/mL] | also measured
[C-]#[N+]C12CC3(/C=C/C(=O)Nc4cccc(Cl)c4)OC3C1O2 (centres unmarked) [compound 41] | 0.39 (≈ 1.29 µM) | 0.2 (≈ 0.661 µM) | > 200 | < 0.05 | 0.1 (≈ 0.33 µM) | 0.1 (≈ 0.33 µM) | > 200 | 0.78 (≈ 2.58 µM) | < 0.05 | 50 (≈ 165 µM) | 0.78 (≈ 2.58 µM) | > 200 | 3.13 (≈ 10.3 µM) | 1.56 (≈ 5.15 µM) | 3.13 (≈ 10.3 µM) | > 200 | 3.13 (≈ 10.3 µM) | 1.56 (≈ 5.15 µM) | 200 (≈ 661 µM) | 3.13 (≈ 10.3 µM) | MIC [18]: 0.2 µg/mL (≈ 0.661 µM); MIC [19]: > 200 µg/mL; MIC [20]: 0.39 µg/mL (≈ 1.29 µM); MIC [21]: < 0.2 µg/mL; MIC (Proteus vulgaris HX-19): < 0.05 µg/mL; MIC [22]: > 200 µg/mL; MIC [23]: 0.8 µg/mL (≈ 2.64 µM); MIC [24]: 3.13 µg/mL (≈ 10.3 µM); MIC [25]: > 200 µg/mL
[C-]#[N+]C12CC3(/C=C/C(=O)Nc4ccccc4Cl)OC3C1O2 (centres unmarked) [compound 42] | 1.56 (≈ 5.15 µM) | 0.39 (≈ 1.29 µM) | > 200 | 0.78 (≈ 2.58 µM) | 3.13 (≈ 10.3 µM) | 0.39 (≈ 1.29 µM) | > 200 | 6.25 (≈ 20.6 µM) | < 0.05 | > 200 | 3.13 (≈ 10.3 µM) | > 200 | 12.5 (≈ 41.3 µM) | 6.25 (≈ 20.6 µM) | 25 (≈ 82.6 µM) | > 200 | 25 (≈ 82.6 µM) | 3.13 (≈ 10.3 µM) | > 200 | > 200 | MIC [18]: 3.13 µg/mL (≈ 10.3 µM); MIC [19]: > 200 µg/mL; MIC [20]: 1.56 µg/mL (≈ 5.15 µM); MIC [21]: < 0.2 µg/mL; MIC (Proteus vulgaris HX-19): 0.1 µg/mL (≈ 0.33 µM); MIC [22]: > 200 µg/mL; MIC [23]: 1.56 µg/mL (≈ 5.15 µM); MIC [24]: 25 µg/mL (≈ 82.6 µM); MIC [25]: > 200 µg/mL
[C-]#[N+]C12CC3(/C=C/C(=O)Nc4ccc(F)cc4)OC3C1O2 (centres unmarked) [compound 43] | 3.13 (≈ 10.9 µM) | 0.78 (≈ 2.72 µM) | > 200 | 0.78 (≈ 2.72 µM) | 0.39 (≈ 1.36 µM) | 1.56 (≈ 5.45 µM) | > 200 | 0.78 (≈ 2.72 µM) | 0.2 (≈ 0.699 µM) | 12.5 (≈ 43.7 µM) | 0.39 (≈ 1.36 µM) | 12.5 (≈ 43.7 µM) | 1.56 (≈ 5.45 µM) | 6.25 (≈ 21.8 µM) | 3.13 (≈ 10.9 µM) | 25 (≈ 87.3 µM) | 12.5 (≈ 43.7 µM) | 1.56 (≈ 5.45 µM) | 25 (≈ 87.3 µM) | 1.56 (≈ 5.45 µM) | MIC [18]: 0.78 µg/mL (≈ 2.72 µM); MIC [19]: 6.25 µg/mL (≈ 21.8 µM); MIC [20]: 3.13 µg/mL (≈ 10.9 µM); MIC [21]: < 0.2 µg/mL; MIC (Proteus vulgaris HX-19): 0.39 µg/mL (≈ 1.36 µM); MIC [22]: > 200 µg/mL; MIC [23]: 0.39 µg/mL (≈ 1.36 µM); MIC [24]: 6.25 µg/mL (≈ 21.8 µM); MIC [25]: > 200 µg/mL
[C-]#[N+]C12CC3(/C=C/C(=O)Nc4ccc(Br)cc4)OC3C1O2 (centres unmarked) [compound 44] | 3.13 (≈ 9.02 µM) | 0.39 (≈ 1.12 µM) | > 200 | 0.2 (≈ 0.576 µM) | 3.13 (≈ 9.02 µM) | 0.39 (≈ 1.12 µM) | > 200 | 3.13 (≈ 9.02 µM) | < 0.05 | > 200 | 6.25 (≈ 18 µM) | > 200 | 12.5 (≈ 36 µM) | 25 (≈ 72 µM) | 50 (≈ 144 µM) | > 200 | 200 (≈ 576 µM) | 1.56 (≈ 4.49 µM) | > 200 | 100 (≈ 288 µM) | MIC [18]: 3.13 µg/mL (≈ 9.02 µM); MIC [19]: > 200 µg/mL; MIC [20]: 12.5 µg/mL (≈ 36 µM); MIC [21]: < 0.2 µg/mL; MIC (Proteus vulgaris HX-19): 0.1 µg/mL (≈ 0.288 µM); MIC [22]: > 200 µg/mL; MIC [23]: 0.39 µg/mL (≈ 1.12 µM); MIC [24]: 50 µg/mL (≈ 144 µM); MIC [25]: > 200 µg/mL
